Laboratory results reported in ChEMBL document CHEMBL5244232, “Progress in 11β-HSD1 inhibitors for the treatment of metabolic diseases: A comprehensive guide to their chemical structure diversity in drug development” (Eur J Med Chem, 2020).
“And” between values parts separate entries of the source, which are not always exact repeats. Equal values may be shown once.

Legend:
[1] = molecular target: T1, 11-beta-hydroxysteroid dehydrogenase 1 (Homo sapiens, UniProt P28845); assay: Inhibition of human 11beta-HSD1
[2] = molecular target: T2, 11-beta-hydroxysteroid dehydrogenase 1 (Mus musculus, UniProt P50172); assay: Inhibition of mouse 11beta-HSD1
[3] = molecular target: T1, 11-beta-hydroxysteroid dehydrogenase 1; assay: Inhibition of human 11beta-HSD1 using steroid as substrate incubated for 20 to 30 mins by microplate fluorimeter analysis
[4] = molecular target: T2, 11-beta-hydroxysteroid dehydrogenase 1; assay: Inhibition of mouse 11beta-HSD1 expressed in CHO-K1 cells incubated for 3 hrs by HTRF assay; format: cell-based
[5] = molecular target: T1, 11-beta-hydroxysteroid dehydrogenase 1; assay: Inhibition of human 11beta-HSD1 incubated for 30 mins by HPLC-MS/MS analysis
[6] = molecular target: T3, 11-beta-hydroxysteroid dehydrogenase 1 (Rattus norvegicus, UniProt P16232); assay: Inhibition of rat 11beta-HSD1 expressed in Leydig cells; format: cell-based
[7] = Inhibition of rat 11beta-HSD2 expressed in Leydig cells; format: cell-based
[8] = molecular target: T2, 11-beta-hydroxysteroid dehydrogenase 1; assay: Inhibition of mouse 11beta-HSD1 expressed in CHO-K1 cells incubated for 24 hrs by HTRF assay; format: cell-based
[9] = molecular target: T1, 11-beta-hydroxysteroid dehydrogenase 1; assay: Inhibition of human 11beta-HSD1 in liver microsome incubated for 24 hrs by LC-MS analysis; format: microsomes
[10] = molecular target: T2, 11-beta-hydroxysteroid dehydrogenase 1; assay: Inhibition of mouse 11beta-HSD1 in liver microsome incubated for 24 hrs by LC-MS analysis; format: microsomes
[11] = molecular target: Hydroxysteroid 11-beta dehydrogenase 1 (Macaca mulatta, UniProt Q56D22); assay: Inhibition of monkey 11beta-HSD1 in liver microsome incubated for 24 hrs by LC-MS analysis; format: microsomes
[12] = molecular target: T2, 11-beta-hydroxysteroid dehydrogenase 1; assay: Inhibition of mouse 11beta-HSD1 expressed in 3T3-L1 cells incubated for 24 hrs by HTRF assay; format: cell-based
[13] = molecular target: T2, 11-beta-hydroxysteroid dehydrogenase 1; assay: Inhibition of mouse 11beta-HSD1 incubated for 24 hrs by HTRF assay
[14] = molecular target: T4, 11-beta-hydroxysteroid dehydrogenase type 2 (Homo sapiens, UniProt P80365); assay: Inhibition of human 11beta-HSD2 incubated for 2 hrs by HPLC analysis
T4 sequence (P80365 whole entry): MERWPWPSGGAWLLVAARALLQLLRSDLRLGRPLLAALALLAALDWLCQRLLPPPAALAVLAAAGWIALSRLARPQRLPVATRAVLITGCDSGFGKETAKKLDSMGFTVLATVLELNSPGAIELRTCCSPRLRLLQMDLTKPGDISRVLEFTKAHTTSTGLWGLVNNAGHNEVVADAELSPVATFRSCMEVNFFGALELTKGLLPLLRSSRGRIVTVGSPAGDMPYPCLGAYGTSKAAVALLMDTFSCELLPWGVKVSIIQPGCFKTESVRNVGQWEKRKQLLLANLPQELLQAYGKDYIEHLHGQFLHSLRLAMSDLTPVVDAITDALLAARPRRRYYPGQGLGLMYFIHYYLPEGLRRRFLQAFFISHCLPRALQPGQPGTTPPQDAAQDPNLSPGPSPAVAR

[15] = molecular target: T3, 11-beta-hydroxysteroid dehydrogenase 1; assay: Inhibition of rat 11beta-HSD1
[16] = molecular target: T3, 11-beta-hydroxysteroid dehydrogenase 1; assay: Inhibition of rat 11beta-HSD1 in kidney microsomes incubated for 20 mins by HPLC analysis; design: species or system Microsome
[17] = molecular target: 11-beta-hydroxysteroid dehydrogenase 1 (Rattus norvegicus) (UniProt P16232); assay: Inhibition of rat 11beta-HSD1 in adipose tissue microsome

T3 sequence (P16232 whole entry): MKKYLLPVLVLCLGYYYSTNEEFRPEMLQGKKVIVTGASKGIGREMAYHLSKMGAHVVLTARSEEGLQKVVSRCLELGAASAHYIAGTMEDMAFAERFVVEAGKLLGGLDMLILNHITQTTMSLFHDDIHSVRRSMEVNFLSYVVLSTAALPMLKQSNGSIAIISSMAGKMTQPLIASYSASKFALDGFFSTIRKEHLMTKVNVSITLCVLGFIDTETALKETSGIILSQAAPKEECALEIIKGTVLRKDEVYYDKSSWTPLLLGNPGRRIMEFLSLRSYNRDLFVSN
T2 sequence (P50172 whole entry): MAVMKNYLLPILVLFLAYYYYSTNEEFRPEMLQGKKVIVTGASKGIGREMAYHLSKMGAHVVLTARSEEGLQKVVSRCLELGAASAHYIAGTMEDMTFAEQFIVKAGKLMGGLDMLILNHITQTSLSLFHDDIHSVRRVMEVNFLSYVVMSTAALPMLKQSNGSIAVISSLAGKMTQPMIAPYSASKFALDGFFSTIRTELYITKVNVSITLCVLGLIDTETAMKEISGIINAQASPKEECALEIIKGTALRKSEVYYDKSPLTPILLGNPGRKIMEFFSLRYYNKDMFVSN
T1 sequence (P28845 whole entry): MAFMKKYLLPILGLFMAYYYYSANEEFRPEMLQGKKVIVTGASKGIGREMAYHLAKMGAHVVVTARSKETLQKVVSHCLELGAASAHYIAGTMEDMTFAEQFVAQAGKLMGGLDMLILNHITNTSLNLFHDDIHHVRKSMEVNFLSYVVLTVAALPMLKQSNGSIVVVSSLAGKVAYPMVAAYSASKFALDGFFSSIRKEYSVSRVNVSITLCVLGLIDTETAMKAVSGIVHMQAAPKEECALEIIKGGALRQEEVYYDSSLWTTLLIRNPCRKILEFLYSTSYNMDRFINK
Chain of Hydroxysteroid 11-beta dehydrogenase 1 (Q56D22 whole entry): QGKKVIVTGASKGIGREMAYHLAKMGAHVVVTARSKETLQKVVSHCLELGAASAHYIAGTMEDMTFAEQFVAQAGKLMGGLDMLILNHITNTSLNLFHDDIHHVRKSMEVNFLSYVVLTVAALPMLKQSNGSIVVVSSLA

O=S(=O)(c1ccccc1)N1CCN(c2ncccc2C(F)(F)F)CC1
IC50 [1]: 61 nM

C[C@@H](c1ccc(-c2ccn(C)c(=O)c2)cc1)N1CC[C@](CC(C)(C)O)(c2ccccc2)OC1=O
IC50 [2]: 4.3 nM

O=C(Cc1csc(NS(=O)(=O)c2c(Cl)cc(Cl)cc2Cl)n1)N1CCOCC1
IC50 [3]: 335 nM

O=S(=O)(Nc1nc(-c2sccc2Cl)cs1)c1cc(F)c(Br)cc1F
IC50 [3]: 63 nM

O=C(NC12CC3CC(CC(C3)C1)C2)C1NCCS1 (configuration not stated)
IC50 [4]: 2130 nM

CC1=C2[C@H](C)[C@@H](C)O[C@]23O[C@H](C)[C@@H](C)O[C@@]3(O)CC1=O
IC50 [5]: 9070 nM

O=C1/C(=C\c2ccccc2C(F)(F)F)CCC/C1=C\c1ccccc1C(F)(F)F
IC50 [6]: 100 nM | IC50 [7]: > 100000 nM

NC(=O)C12CC3CC(CC(NC(=O)CN4CCCN(c5c(Cl)cc(Cl)cc5Cl)S4(=O)=O)(C3)C1)C2
IC50 [8]: 0.4 nM

Cc1nc(NS(=O)(=O)c2ccc(Cl)cc2Cl)sc1CC(Cl)(Cl)Cl
IC50 [3]: 55 nM

CN(CC1(C(=O)NC23CC4CC(C2)CC(C(N)=O)(C4)C3)CC1)S(=O)(=O)c1ccccc1F
IC50 [9]: 0.02 nM | IC50 [10]: 2.8 nM | IC50 [11]: 2.43 nM

NC(=O)C12CC3CC(CC(NC(=O)C4SCCN4S(=O)(=O)c4ccccc4F)(C3)C1)C2 (configuration not stated)
IC50 [12]: 3 nM | IC50 [4]: 5.2 nM

O=C(CN1C(C(=O)c2ccccc2)=C(O)c2ccccc2S1(=O)=O)c1ccccc1
IC50 [13]: 210 nM

O=C(O[C@@H]1Cc2c(O)cc(O)cc2O[C@@H]1c1cc(O)c(O)c(O)c1)c1cc(O)c(O)c(O)c1 [EPIGALOCATECHIN GALLATE]
IC50 [14]: 20900 nM

C[C@@H]1CN(c2ccc(F)cc2C(F)(F)F)CCN1S(=O)(=O)c1cccc([C@@](C)(O)C(F)(F)F)c1 [HSD-016]
IC50 [2]: 1 nM and 8 nM | IC50 [1]: 11 nM | IC50 [15]: 8 nM

Oc1ccc(/C=C/c2cc(O)cc(O)c2)cc1 [RESVERATROL]
IC50 [16]: 35200 nM | IC50 [17]: 1000 nM
